Results taken from patent publication US20180311237A1, “COMPOSITIONS AND METHODS FOR PREVENTING AND TREATING MUCOSITIS AND WEIGHT LOSS” (ST IP Holding AG, priority 2007, published 2018).
Values joined by “and” are separate entries in the source; they are usually repeats but may differ in a detail not shown here. Equal values may be shown once. Read-outs that look alike come from different tables or passages of the source. Marks after values point to notes of the source that are not given here.

How the values were obtained:
spleen = details: day 10 post-irradiation
Method: The weight of the spleen at each autopsy interval (day 1, 3, 7, 10, 14 and 30 post-irradiation) was determined to study changes.

[1] = system: mice exposed to 6, 8 and 10 Gy gamma radiation
From the text: Male Swiss albino mice (Mus musculus), 6-8 weeks old with 25±3 g body weight from an inbred colony (obtained from Hamadard University, Delhi, India) were used for the present study. Animals were maintained under controlled conditions of temperature and light in an animal house and were provided with standard mice feed (procured from Hindustan Lever's Ltd. Delhi, India) and water ad libitum.
Cobalt teletherapy unit (ATC-C9) at the Cancer treatment centre, Radiotherapy Department, SMS Medical College & Hospital, Jaipur, India, was used for irradiation.
(§1) Thirty minutes after the last administration, the animals were exposed to 8 Gy gamma radiation. Survival of the animals was recorded for 30 days after irradiation. The reduced glutathione (GSH) and lipid peroxidation (LPO) levels in liver and blood were estimated after 30 minutes of radiation exposure.
The protective capacity of an agent (chemical or plant extract) is expressed as dose reduction factor (DRF). It can be calculated by dividing the LD50/30 of experimental animals by LD^50/30 of control animals.
Mice of both groups (control as well as experimental) exposed to 6, 8 and 10 Gy gamma radiation were checked daily for 30 days and the percentage of mice surviving 30 days of exposure against each radiation dose was used to construct survival-dose response curves.
The results obtained are expressed as mean±SE. Student's “t” test was used to make a statistical comparison between the groups. Significance levels were set at P<0.05, P<0.01 and P<0.001. Regression analysis was done to obtain LD50/30 values and to determine the dose reduction factor (DRF).

[2] = system: NCI-H146 (H146) small cell lung cancer cells
Method: Ninety-six (96) female nude mice ([…]) were randomly assigned into 8 treatment groups. Each mouse was inoculated with 1×10^6 NCI-H146 (H146) small cell lung cancer cells in a volume of 0.05 mL on their lower left flank with Matrigel. Treatment began once tumors reached a volume of 75-125 mm^3.
Initiation of drug treatment was designated day 1. Mice in groups 1 and 5 received vehicle by oral gavage once daily on days 1 and 3. […] Mice in groups 5 to 8 received radiation. The radiation was given as 2 doses of 2 Gy/dose on days 2 and 4. This was accomplished by anesthetizing the mice in these groups with ketamine (100 mg/kg) and xylazine (5 mg/kg) and placing them under a lead shield such that the region of the flank with tumor exposed to the radiation. Radiation was delivered using a Philips 160 kV source at a focal distance of approximately 40 cm, and a dose rate of approximately 1.0 Gy/min. Tumours were measured on alternating days throughout the duration of the study. All mice were sacrificed on day 21 and remaining tumours were excised, measured, weighed, photographed and fixed in formalin for later analysis.
H146 human lung cancer cells were obtained from ATCC. These cells were grown in DMEM supplemented with 10% Fetal Calf Serum (FCS), penicillin and streptomycin, and 2 mM L-Glutamine. Cells were sub-cultured by removing the medium, rinsing twice with sterile calcium- and magnesium-free phosphate buffered saline (PBS) and adding 1 to 2 ml of 0.25% trypsin, 0.03% EDTA solution. The flask was allowed to sit at 37° C. until the cells detached. Cells were then sub-cultured at a ratio of 1:3.
Tumours were measured once every two days with micro-calipers, and tumour volume was calculated as (length×width)[…]. The tumour growth index (TGI) was calculated using the formula 100−([…]), where Vc is the mean volume of the tumours in the control group and Vt is the mean volume of the tumours in the test group.
Tumour volumes were calculated from the length and width measurements taken on alternating days by calculating the mean radius (r), which was the sum of length and width divided by 4, and using the formula 4/3 πr^3 to calculate the volume.

[3] = system: reduced glutathione (GSH)
Method: as §1
The hepatic level of reduced glutathione (GSH) was determined as per the standard method. GSH content in blood was measured
Spectrophotometrically using Ellman's reagent (DTNB) as a colouring reagent. The absorbance was read at 412 nm using a UV-VIS Systronics Spectrophotometer.

[4] = 50 mg/kg on days 1 and 3, no radiation
[5] = 50 mg/kg on days 1 to 20, no radiation
[6] = 100 mg/kg on days 1 and 3, no radiation
[7] = radiation plus 50 mg/kg on days 1 and 3
[8] = radiation plus 50 mg/kg on days 1 to 20
[9] = radiation plus 100 mg/kg on days 1 and 3

## Cc1c(-c2cnccn2)ssc1=S
spleen; drug + 6 Gy
  Spleen Weight: 42.44 ± 1.24^b mg
spleen; drug + 8 Gy
  Spleen Weight: 32.62 ± 1.02^b mg
spleen; drug + 10 Gy
  Spleen Weight: 34.38 ± 1.20^c mg
[1]; 100 mg/kg body weight/day before 6 Gy
  radiation sickness: No radiation sickness was observed
[1]; 100 mg/kg body weight/day orally, 2 days, before 6 Gy
  30-Day Survival Percentage: 100%
[1]; 100 mg/kg body weight/day orally, 2 days, before 8 Gy
  30-Day Survival Percentage: 61%
[1]; 100 mg/kg body weight/day orally, 2 days, before 10 Gy
  30-Day Survival Percentage: 20%
[1]; 100 mg/kg body weight/day orally, 2 days, before radiation, regression analysis of survival data
  LD50/30 of experimental animals: 8.82 Gy and 8.51 Gy
[1]; LD50/30 of experimental animals divided by LD50/30 of control animals
  DRF (dose reduction factor): 1.34
[1]; for 2 consecutive days before irradiation (8 Gy)
  optimum dose exhibiting maximum radioprotection: 100 mg/kg body weight/day
[2]; [4]
  mean tumour volume on Day 1: 72 mm^3
  mean tumour volume on Day 21: 940 mm^3
[2]; [5]
  mean tumour volume on Day 1: 76 mm^3
  mean tumour volume on Day 21: 1130 mm^3
[2]; [6]
  mean tumour volume on Day 1: 110 mm^3
  mean tumour volume on Day 21: 1341 mm^3
[2]; doses and dose schedules of this study
  effect on tumour volume when given in conjunction with radiation therapy: does not have an additive effect
[2]; [7]
  mean tumour volume on Day 1: 93 mm^3
  mean tumour volume on Day 21: 971 mm^3
[2]; [8]
  mean tumour volume on Day 1: 140 mm^3
  mean tumour volume on Day 21: 1380 mm^3
[2]; [9]
  mean tumour volume on Day 1: 63 mm^3
  mean tumour volume on Day 21: 769 mm^3
[2]; single agent, 50 mg/kg once daily on days 1 and 3 (P=0.030)
  tumour volume relative to vehicle controls by day 21: significant reduction in tumour volume
[3]; drug + 6 Gy
  Blood GSH: 3.02 ± 0.12^c μg/ml
  Liver GSH: 52.44 ± 1.54^b μmole/gm
[3]; drug + 8 Gy
  Blood GSH: 2.88 ± 0.11^b μg/ml
  Liver GSH: 54.62 ± 1.72^c μmole/gm
[3]; drug + 10 Gy
  Blood GSH: 2.40 ± 0.12 µg/mL
  Liver GSH: 44.38 ± 1.42^c μmole/gm
[3]; drug alone, no irradiation
  Blood GSH: 4.18 ± 0.18 µg/mL
  Liver GSH: 65.68 ± 1.48 μmole/gm
